Assay results: US8946413B2 (Pfizer Inc., priority 2008, dated 2015)
Like-named read-outs stand apart in the source and are kept apart here.

Target: T1, CCR2 (Homo sapiens, UniProt P41597)
T1 construct: (leukophoresis pack); host or cells: human peripheral blood mononuclear cells (PBMCs) from a normal human leukophoresis pack
Assay: hCCR2 (125-I hMCP-1) small molecule binding assay on human PBMCs
Settings: 125I-MCP-1, human PBMCs
Text: The CCR2 antagonist activity of compounds of the invention can be reported as the inhibitor concentration required for 50% inhibition (IC50 values) of specific binding in receptor binding assays using 125I-labeled MCP-1, as ligand, and Peripheral Blood Mononuclear Cells (PBMCs) prepared from normal human whole blood via density gradient centrifugation. Specific binding is defined as the total binding (e.g., total cpm on filters) minus the non-specific binding. Non-specific binding is defined as the amount of cpm still defected in the presence of excess unlabeled competitor (e.g., MCP-1),
Human PBMCs were used to test compounds of the invention in a binding assay. For example, 200,000 to 500,000 cells were incubated with 0.1 to 0.2 nM 125I-labeled MCP-1, with or without unlabeled competitor (10 nM MCP-1) or various concentrations of compounds to be tested. 125I-labeled MCP-1, were prepared by suitable methods or purchased from commercial vendors (Perkin Elmer, Boston Mass.). The binding reactions were performed in 50 to 250 μL of a binding buffer consisting of […] pH 7.2, and 0.1% BSA (bovine serum albumin), for 30 minutes at room temperature. The binding reactions were terminated by harvesting the membranes by rapid filtration through glass fiber filters (Perkin Elmer) which was presoaked in 0.3% polyethyleneimine or Phosphate Buffered Saline (PBS). The filters were rinsed with approximately 600 μL of binding buffer containing, 0.5 M NaCl or PBS, then dried, and the amount of bound radioactivity was determined by counting on a Gamma Counter (Perkin Elmer).
More specifically, the following assay may be employed to determine IC50 values for the compounds of the present invention.
hCCR2 (125-I hMCP-1) Small Molecule Binding Assay
Normal human leukophoresis pack contents, available from Biological Specialty Corporation, Colmar, Pa., is diluted 1:1 with PBS, divided into 50 ml conical tubes (preferably less than 40 mls per tube), and underlayed with 10 mls of Ficoll-Paque PLUS (GE Healthcare 17-1440-02). The tubes are centrifuged at 2800 rpm in a clinical centrifuge at room temperature for 30 mins, with no brake. The plasma layer is suctioned, and the buffycoat layer is collected. The collected buffycoat layer is washed twice with 50 mls PBS, and centrifuged at 1400 rpm with brake. The cells are counted. The cells are then diluted to 1×10^7 cells per ml in binding buffer.
96 well plates (such as, for example, Millipore MultiScreen96 plates) are pre-wet with about 100 μl binding buffer (RPMI+0.1% BSA+20 mM HEPES), and blotted just prior to compound addition.
5 μl of 50 μM test compounds in 100% DMSO are dotted onto U-bottom polypropylene 96-well plates.
245 μl per well of Binding Buffer is added to each well for 1 μM compound concentration in 2% DMSO.
50 μl of 1 μM compound is transferred to pre-wetted Millipore plates. 50 μl per well of 1×10E7 cells per ml of freshly prepared human PBMCs are added.
The samples are pre-incubated at room temperature for 30 minutes or 1 hour.
50 μl of 450 pM 125-I-hMCP-1 (Perkin-Elmer/NEN cat#NEX332025UC) is added for a final concentration 125-I-hMCP-1 of 150 pM per well.
The final test compound concentration is 0.333 uM in 150 μl total volume with 0.67% DMSO in all wells. Controls for this assay consist of 0% inhibition and 100% inhibition with 1 uM hMCP-1 (saturating conditions). All wells are run in duplicate. Controls may be in replicates of eight.
The samples are incubated at room temperature for 30 minutes.
The buffer is suctioned through the Millipore plates. The plates are washed three times with Wash Buffer (PRMI+0.1% BSA+20 mM HEPES+ 0.4 M NaC).
The plate underdrain is removed. The plate filters are allowed to dry. The filters are then punched out into plastic tubes.
Finally, the sample is counted an a Gamma Counter.
All IC50 plates were repeated for an n=2.
The following table summarizes the IC50 values identified through the described assay.

[1] = 30 min preincubation, read-out: IC50 (nM) 30 min preinc
[2] = 1 hr preincubation, read-out: IC50 (nM) 1 hr preinc

T1 sequence (P41597 whole entry): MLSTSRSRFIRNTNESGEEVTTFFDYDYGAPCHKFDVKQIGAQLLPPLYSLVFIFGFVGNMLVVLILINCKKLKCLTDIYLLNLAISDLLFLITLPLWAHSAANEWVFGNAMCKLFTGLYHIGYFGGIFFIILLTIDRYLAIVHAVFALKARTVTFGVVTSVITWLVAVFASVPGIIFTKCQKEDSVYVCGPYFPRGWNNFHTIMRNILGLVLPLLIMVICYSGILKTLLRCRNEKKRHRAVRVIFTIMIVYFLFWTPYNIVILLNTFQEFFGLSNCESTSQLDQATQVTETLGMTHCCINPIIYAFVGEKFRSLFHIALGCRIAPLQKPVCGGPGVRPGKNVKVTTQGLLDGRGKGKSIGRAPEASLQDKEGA

Row | Compound | IC50 [1] [nM] | IC50 [2] [nM]
1 | CO[C@@H]1COCC[C@@H]1N[C@@H]1CC[C@](CC(F)(F)F)(C(=O)N2C[C@@H]3C[C@H]2CN3c2cc(C(F)(F)F)ccn2)C1 [Example 33, 1,5-anhydro-2,3-dideoxy-4-O-methyl-3-{[(1R,3S)-3-(2,2,2-trifluoroethyl)-3-({(1S,4S)-5-[4-(trifluoromethyl)pyridin-2-yl]-2,5-diazabicyclo[2.2.1]hept-2-yl}carbonyl)cyclopentyl]amino}-D-erythro-pentitol] | 57.3 | 11.7
2 | CO[C@@H]1COCC[C@@H]1N[C@@H]1CC[C@](CC(F)(F)F)(C(=O)N2C[C@@H]3C[C@H]2CN3c2ccnc(C(F)(F)F)c2)C1 [Example 34, 1,5-anhydro-2,3-dideoxy-4-O-methyl-3-{[(1R,3S)-3-(2,2,2-trifluoroethyl)-3-({(1S,4S)-5-[2-(trifluoromethyl)pyridin-4-yl]-2,5-diazabicyclo[2.2.1]hept-2-yl}carbonyl)cyclopentyl]amino}-D-erythro-pentitol] | 66.5 | 6.94
3 | CO[C@@H]1COCC[C@@H]1N[C@@H]1CC[C@](CC(F)(F)F)(C(=O)N2C[C@@H]3C[C@H]2CN3c2nccc(C(F)(F)F)n2)C1 [Example 35, 1,5-anhydro-2,3-dideoxy-4-O-methyl-3-{[(1R,3S)-3-(2,2,2-trifluoroethyl)-3-({(1S,4S)-5-[4-(trifluoromethyl)pyrimidin-2-yl]-2,5-diazabicyclo[2.2.1]hept-2-yl}carbonyl)cyclopentyl]amino}-D-erythro-pentitol] | 28.4 | 5.52
4 | CO[C@@H]1COCC[C@@H]1N[C@@H]1CC[C@](CC(F)(F)F)(C(=O)N2C[C@@H]3C[C@H]2CN3c2cccc(C(F)(F)F)n2)C1 [Example 36, 1,5-anhydro-2,3-dideoxy-4-O-methyl-3-{[(1R,3S)-3-(2,2,2-trifluoroethyl)-3-({(1S,4S)-5-[6-(trifluoromethyl)pyridin-2-yl]-2,5-diazabicyclo[2.2.1]hept-2-yl}carbonyl)cyclopentyl]amino}-D-erythro-pentitol] | 12.6 | 2.19
5 | CO[C@@H]1COCC[C@@H]1N[C@@H]1CC[C@](CC(F)(F)F)(C(=O)N2C[C@@H]3C[C@H]2CN3c2cncc(C(F)(F)F)n2)C1 [Example 37] |  | 3.68
6 | CO[C@@H]1COCC[C@@H]1N[C@@H]1CC[C@](CC(F)(F)F)(C(=O)N2C[C@@H]3C[C@H]2CN3c2ccnc(C(F)(F)F)n2)C1 [Example 38, 1,5-anhydro-2,3-dideoxy-4-O-methyl-3-{[(1R,3S)-3-(2,2,2-trifluoroethyl)-3-({(1S,4S)-5-[2-(trifluoromethyl)pyrimidin-4-yl]-2,5-diazabicyclo[2.2.1]hept-2-yl}carbonyl)cyclopentyl]amino}-D-erythro-pentitol] | 68.7 | 2.02
7 | CO[C@@H]1COCC[C@@H]1N[C@@H]1CC[C@](CC(F)(F)F)(C(=O)N2C[C@@H]3C[C@H]2CN3c2cc(C(F)(F)F)cnn2)C1 [Example 39, 1,5-anhydro-2,3-dideoxy-4-O-methyl-3-{[(1R,3S)-3-(2,2,2-trifluoroethyl)-3-({(1S,4S)-5-[5-(trifluoromethyl)pyridazin-3-yl]-2,5-diazabicyclo[2.2.1]hept-2-yl}carbonyl)cyclopentyl]amino}-D-erythro-pentitol] | 82.9 | 5.81
8 | CO[C@@H]1COCC[C@@H]1N[C@@H]1C=C[C@@](C(=O)N2C[C@@H]3C[C@H]2CN3c2cc(C(F)(F)F)ccn2)(C(C)C)C1 [Example 40, 1,5-anhydro-2,3-dideoxy-3-{[(1S,4S)-4-isopropyll-4-({(1S,4S)-5-[4-(trifluoromethyl)pyridin-2-yl]-2,5-diazabicyclo[2.2.1]hept-2-yl}carbonyl)cyclopent-2-en-1-yl]amino}-4-O-methyl-D-erythro-pentitol] | 18.3 | 
9 | CO[C@@H]1COCC[C@@H]1N[C@@H]1C=C[C@@](C(=O)N2C[C@@H]3C[C@H]2CN3c2nccc(C(F)(F)F)n2)(C(C)C)C1 [Example 41, 1,5-anhydro-2,3-dideoxy-3-{[(1S,4S)-4-isopropyll-4-({(1S,4S)-5-[4-(trifluoromethyl)pyrimidin-2-yl]-2,5-diazabicyclo[2.2.1]hept-2-yl}carbonyl)cyclopent-2-en-1-yl]amino}-4-O-methyl-D-erythro-pentitol] | 63.6 | 
10 | CO[C@@H]1COCC[C@@H]1N[C@@H]1C=C[C@@](C(=O)N2C[C@@H]3C[C@H]2CN3c2cccc(C(F)(F)F)n2)(C(C)C)C1 [Example 42, 1,5-anhydro-2,3-dideoxy-3-{[(1S,4S)-4-isopropyll-4-({(1S,4S)-5-[6-(trifluoromethyl)pyridin-2-yl]-2,5-diazabicyclo[2.2.1]hept-2-yl}carbonyl)cyclopent-2-en-1-yl]amino}-4-O-methyl-D-erythro-pentitol] | 70.9 | 
11 | CO[C@@H]1COCC[C@@H]1N[C@@H]1C=C[C@@](C(=O)N2C[C@@H]3C[C@H]2CN3c2cncc(C(F)(F)F)n2)(C(C)C)C1 [Example 43, 1,5-anhydro-2,3-dideoxy-3-{[(1S,4S)-4-isopropyll-4-({(1S,4S)-5-[6-(trifluoromethyl)pyrazin-2-yl]-2,5-diazabicyclo[2.2.1]hept-2-yl}carbonyl)cyclopent-2-en-1-yl]amino}-4-O-methyl-D-erythro-pentitol] | 47.3 | 
12 | CO[C@@H]1COCC[C@@H]1N[C@@H]1CC[C@](CC(F)(F)F)(C(=O)N2C[C@@H]3C[C@H]2CN3C(=O)OC(C)(C)C)C1 [Example 44, 1,5-anhydro-3-{[(1R,3S)-3-{[(1S,4S)-5-(tert-butoxycarbonyl)-2,5-diazabicyclo[2.2.1]hept-2-yl]carbonyl}-3-(2,2,2-trifluoroethyl)cyclopentyl]amino}-2,3-dideoxy-4-O-methyl-D-erythro-pentitol] |  | 8.1
13 | CO[C@@H]1COCC[C@@H]1N[C@@H]1CC[C@@](C(=O)N2C[C@@H]3C[C@H]2CN3c2cccc(C(F)(F)F)n2)(C2(O)CCC2)C1 [Example 45, 1,5-anhydro-2,3-dideoxy-3-{[(1R,3S)-3-(1-hydroxycyclobutyl)-3-({(1S,4S)-5-[6-(trifluoromethyl)pyridin-2-yl]-2,5-diazabicyclo[2.2.1]hept-2-yl}carbonyl)cyclopentyl]amino}-4-O-methyl-D-erythro-pentitol] | 25.3 | 
14 | CO[C@@H]1COCC[C@@H]1N[C@@H]1CC[C@@](C(=O)N2C[C@@H]3C[C@H]2CN3c2cc(C(F)(F)F)ccn2)(C2(O)CCC2)C1 [Example 46, 1,5-anhydro-2,3-dideoxy-3-{[(1R,3S)-3-(1-hydroxycyclobutyl)-3-({(1S,4S)-5-[4-(trifluoromethyl)pyridin-2-yl]-2,5-diazabicyclo[2.2.1]hept-2-yl}carbonyl)cyclopentyl]amino}-4-O-methyl-D-erythro-pentitol] | 3.19 | 
15 | CO[C@@H]1COCC[C@@H]1N[C@@H]1CC[C@@](C(=O)N2C[C@@H]3C[C@H]2CN3c2nccc(C(F)(F)F)n2)(C2(O)CCC2)C1 [Example 47, 1,5-anhydro-2,3-dideoxy-3-{[(1R,3S)-3-(1-hydroxycyclobutyl)-3-({(1S,4S)-5-[4-(trifluoromethyl)pyrimidin-2-yl]-2,5-diazabicyclo[2.2.1]hept-2-yl}carbonyl)cyclopentyl]amino}-4-O-methyl-D-erythro-pentitol] | 6.16 | 
